≈ marks a conversion by molar mass, not a printed value.
Key:
Type in all cases: in vivo
[1] = system: rice stem borer (Chilo suppressalis); assay: Lethal effect on rice stem borer (Table 6); conditions: 50 % emulsifiable concentrate, 1000 fold dilute solution, 4 days after application
Source text: Eggs just before hatch of the rice stem borer were applied in a ratio of 100/pot near the root of rice plants grown up into the tillering stage in an […] Wagner's pot. After eggs were hatched and the larvae entered into stems of rice plants, an 1000 fold dilute solution of each 50 % emulsifiable concentrates of the present compounds was applied by means of a turn table.

[2] = system: barnyard grass (Echinochloa crus-galli); assay: Water application, herbicidal effect on barnyard grass (Table 2); design: key: 0: not damaged; 5: completely killed; conditions: 25 days, score 0-5
In short: (§1)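 Under water-lodged conditions, wettable-powder test compounds are applied to paddy soil carrying transplanted rice (3-leaf) and sown barnyard grass. Activity on these and on spontaneously emerged broad-leaved weeds is graded 0 to 5 twenty-five days later.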

[3] = system: barnyard grass (Echinochloa crus-galli); assay: Pre-emergence application, herbicidal effect on barnyard grass (Table 1); design: key: 0: not damaged; 5: completely killed; conditions: 20 days after application, score 0-5
In short: (§2)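 Pre-emergence soil application of wettable powders diluted in water over covered seeds (~10 cm pots). Greenhouse growth; visual 0–5 rating (0 none, 5 dead) at 20 days.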

[4] = system: common lambsquarter (Chenopodium album); assay: Pre-emergence application, herbicidal effect on common lambsquarter (Table 1); design: key: 0: not damaged; 5: completely killed; conditions: 20 days after application, score 0-5
In short: as §2

radish = assay: Pre-emergence application, herbicidal effect on radish (Table 1); design: key: 0: not damaged; 5: completely killed; conditions: 20 days after application, score 0-5
In short: as §2

[5] = system: large crabgrass (Digitaria sanguinalis); assay: Pre-emergence application, herbicidal effect on large crabgrass (Table 1); design: key: 0: not damaged; 5: completely killed; conditions: 20 days after application, score 0-5
In short: as §2

[6] = system: redroot pigweed (Amaranthus retroflexus); assay: Pre-emergence application, herbicidal effect on redroot pigweed (Table 1); design: key: 0: not damaged; 5: completely killed; conditions: 20 days after application, score 0-5
In short: as §2

rice = assay: Water application, phytotoxicity on rice (Table 2); design: key: 0: no effect; 1: very slightly affected; 2: slightly affected; 3: moderately affected; 4: considerably affected; 5: completely killed; conditions: 25 days, score 0-5
In short: as §1

[7] = system: common purslane (Portulaca oleracea); assay: Pre-emergence application, herbicidal effect on common purslane (Table 1); design: key: 0: not damaged; 5: completely killed; conditions: 20 days after application, score 0-5
In short: as §2

[8] = system: broad-leaved weeds, e.g., monochoria, false pimpernel and toothcup; assay: Water application, herbicidal effect on broad-leaved weeds (Table 2); design: key: 0: not damaged; 5: completely killed; conditions: 25 days, score 0-5
In short: as §1

nematode = assay: Effect on nematode (Table 7); design: tested at 500 ppm; conditions: 500 p.p.m., 24 hours
Description: 0.5 ml. of a nematode-containing aqueous solution separated from food according to Baermann's method was placed in a test tube with ground stopper containing 0.5 ml. of an aqueous dilute solution of each emulsifiable concentrates of the present compounds. The concentration of the active ingredient in the mixture was adjusted to 500 p.p.m. After 24 hours, the death and alive were observed microscopically to calculate the mortality.

[9] = system: broad-leaved weeds, e.g., monochoria, false pimpernel and toothcup; assay: Water application, herbicidal effect on broad-leaved weeds (Table 2); design: key: 0: no effect; 1: very slightly affected; 2: slightly affected; 3: moderately affected; 4: considerably affected; 5: completely killed; conditions: 10 g/a, 25 days, score 0-5
Source text: Wagner pots of 14 cm. in diameter, which had been packed with 1.5 kg. of paddy field soil, were brought into the state of paddy fields. To the pots were transplanted rice seedlings at the 3-leave stage. Further, seeds of barnyard grass (Echinochloa crus-galli) were sowed in the pots and required amounts of test compounds were applied to the soil under water lodged condition. 25 days after application, the degrees of herbicidal activity and phytotoxity were investigated on above-mentioned plants which had been transplanted and sowed, and on broad-leaved weeds, e.g., monochoria (Monochoria viaginalis Presl.), false pimpernel (Linderna pyxidaria) and toothcup (Rotala indica Koehue), which had been spontaneously germinated. The test compounds were used in the form of wettable powder. The herbicidal effects and the phytotoxity were evaluated as follows by the numerals ranging from 0 to 5.

[10] = system: carmine mite (Tetranychus telavius); assay: Lethal effect on carmine mite, leaf dipping (Table 3); conditions: foliar, 48 h
Description: A large number of carmine mite adult were made parasitic on leaves of potted kidney beans at a 2-leaves stage which had elapsed 10 days after sowing. The leaves of kidney bean on which carmine mites had been made parasitic were dipped for 1 minute in each aqueous solution of the present compounds of wettable powder type. Water was given to the leaves not to kill them, and after 48 hours the death and alive were observed microscopically to calculate the mortality. Values of LC50 were obtained from the mortality.

Row | SMILES | Mortality [1] | Herbicidal effects, barnyard grass ([2]; 10 g/a) | Herbicidal effects, barnyard grass ([2]; 20 g/a) | Herbicidal effects, barnyard grass ([2]; 40 g/a) | Herbicidal effect, barnyard grass ([3]; 10 g./a.) | Herbicidal effect, barnyard grass ([3]; 20 g./a.) | Herbicidal effect, barnyard grass ([3]; 40 g./a.) | Herbicidal effect, common lambsquarter ([4]; 10 g./a.) | Herbicidal effect, common lambsquarter ([4]; 20 g./a.) | Herbicidal effect, common lambsquarter ([4]; 40 g./a.) | Herbicidal effect, radish (radish; 10 g./a.) | Herbicidal effect, radish (radish; 20 g./a.) | Herbicidal effect, radish (radish; 40 g./a.) | Herbicidal effect, large crabgrass ([5]; 10 g./a.) | Herbicidal effect, large crabgrass ([5]; 20 g./a.) | Herbicidal effect, large crabgrass ([5]; 40 g./a.) | Herbicidal effect, redroot pigweed ([6]; 10 g./a.) | Herbicidal effect, redroot pigweed ([6]; 20 g./a.) | Herbicidal effect, redroot pigweed ([6]; 40 g./a.) | Phytotoxicity on rice (rice; 10 g/a) | other results
1 | CCOP(=O)(SCC(=O)N1CCCCC1C)SCC(C)C (stereo not drawn) [Compound 6] | 75.0% | – | – | – | – | – | – | – | – | – | – | – | – | – | – | – | – | – | – | – | –
2 | C=CCSP(=O)(OCCC)SCC(=O)N1CCC(C)CC1 (stereo not drawn) [Compound 18] | 76.4% | 5 | 5 | 5 | 4 | 5 | 5 | 4 | 5 | 5 | 0 | 0 | 0 | 5 | 5 | 5 | 4 | 4 | 5 | 0 | Phytotoxicity on rice (rice; 20 g/a): 0; Phytotoxicity on rice (rice; 40 g/a): 0; Herbicidal effect, common purslane ([7]; 10 g./a.): 4; Herbicidal effect, common purslane ([7]; 20 g./a.): 4; Herbicidal effect, common purslane ([7]; 40 g./a.): 5; Herbicidal effects, broad-leaved weeds ([8]; 10 g/a): 5; Herbicidal effects, broad-leaved weeds ([8]; 20 g/a): 5; Herbicidal effects, broad-leaved weeds ([8]; 40 g/a): 5
3 | C=C(Cl)CSP(=O)(OCC)SCC(=O)N1CCCCC1C (stereo not drawn) [Compound 9] | 100% | 5 | 5 | 5 | 5 | 5 | 5 | 4 | 5 | 5 | 0 | 0 | 0 | 5 | 5 | 5 | 4 | 5 | 5 | 0 | Phytotoxicity on rice (rice; 20 g/a): 0; Phytotoxicity on rice (rice; 40 g/a): 0; Herbicidal effect, common purslane ([7]; 10 g./a.): 5; Herbicidal effect, common purslane ([7]; 20 g./a.): 5; Herbicidal effect, common purslane ([7]; 40 g./a.): 5; Herbicidal effects, broad-leaved weeds ([8]; 10 g/a): 5; Herbicidal effects, broad-leaved weeds ([8]; 20 g/a): 5; Herbicidal effects, broad-leaved weeds ([8]; 40 g/a): 5; Mortality (nematode): 100%
4 | CCOC(=O)CC(SP(=S)(OC)OC)C(=O)OCC (stereo not drawn) [Malathion, reference compound] | 41.3% | – | – | – | – | – | – | – | – | – | – | – | – | – | – | – | – | – | – | – | –
5 | CCCCSP(=O)(OCC)SCC(=O)N1CCC(C)CC1 (stereo not drawn) [Compound 24] | 83.0% | 5 | 5 | 5 | 4 | 5 | 5 | 3 | 4 | 4 | 0 | 0 | 0 | 4 | 5 | 5 | 3 | 4 | 4 | 0 | Phytotoxicity on rice (rice; 20 g/a): 0; Phytotoxicity on rice (rice; 40 g/a): 0; Herbicidal effect, common purslane ([7]; 10 g./a.): 4; Herbicidal effect, common purslane ([7]; 20 g./a.): 4; Herbicidal effect, common purslane ([7]; 40 g./a.): 4; Herbicidal effects, broad-leaved weeds [9]: 4; Herbicidal effects, broad-leaved weeds ([8]; 20 g/a): 5; Herbicidal effects, broad-leaved weeds ([8]; 40 g/a): 5
6 | CCCCSP(=O)(OC)SCC(=O)N1CCCCC1C (stereo not drawn) [Compound 31] | 69.5% | – | – | – | – | – | – | – | – | – | – | – | – | – | – | – | – | – | – | – | –
7 | CCOP(=O)(SCC(=O)N1CCCCC1C)SCc1ccccc1 (stereo not drawn) [Compound 11] | – | 5 | 5 | 5 | 4 | 5 | 5 | 4 | 4 | 5 | 0 | 0 | 0 | 4 | 5 | 5 | 4 | 5 | 5 | 0 | Phytotoxicity on rice (rice; 20 g/a): 0; Phytotoxicity on rice (rice; 40 g/a): 0; Herbicidal effect, common purslane ([7]; 10 g./a.): 4; Herbicidal effect, common purslane ([7]; 20 g./a.): 4; Herbicidal effect, common purslane ([7]; 40 g./a.): 5; Herbicidal effects, broad-leaved weeds ([8]; 10 g/a): 5; Herbicidal effects, broad-leaved weeds ([8]; 20 g/a): 5; Herbicidal effects, broad-leaved weeds ([8]; 40 g/a): 5; Mortality (nematode): 100%; LC50 [10]: 50 µg/mL (≈ 129 µM)
8 | C=C(C)CSP(=O)(OCC)SCC(=O)N1CCCCC1C (stereo not drawn) [Compound 35] | 95.0% | – | – | – | – | – | – | – | – | – | – | – | – | – | – | – | – | – | – | – | –
9 | CCCCSP(=O)(OCC)SCC(=O)N1CCCCC1C (stereo not drawn) [Compound 4] | 97.6% | 5 | 5 | 5 | 4 | 5 | 5 | 4 | 4 | 5 | 0 | 0 | 0 | 5 | 5 | 5 | 4 | 4 | 4 | 0 | Phytotoxicity on rice (rice; 20 g/a): 0; Phytotoxicity on rice (rice; 40 g/a): 0; Herbicidal effect, common purslane ([7]; 10 g./a.): 4; Herbicidal effect, common purslane ([7]; 20 g./a.): 4; Herbicidal effect, common purslane ([7]; 40 g./a.): 5; Herbicidal effects, broad-leaved weeds [9]: 4; Herbicidal effects, broad-leaved weeds ([8]; 20 g/a): 5; Herbicidal effects, broad-leaved weeds ([8]; 40 g/a): 5; Mortality (nematode): 100%; LC50 [10]: 11.4 µg/mL (≈ 32.2 µM)
10 | CCOP(=O)(SCCC(C)C)SCC(=O)N1CCCCC1C (stereo not drawn) [Compound 7] | – | 5 | 5 | 5 | 5 | 5 | 5 | 5 | 5 | 5 | 0 | 0 | 0 | 5 | 5 | 5 | 4 | 5 | 5 | 0 | Phytotoxicity on rice (rice; 20 g/a): 0; Phytotoxicity on rice (rice; 40 g/a): 0; Herbicidal effect, common purslane ([7]; 10 g./a.): 5; Herbicidal effect, common purslane ([7]; 20 g./a.): 5; Herbicidal effect, common purslane ([7]; 40 g./a.): 5; Herbicidal effects, broad-leaved weeds ([8]; 10 g/a): 5; Herbicidal effects, broad-leaved weeds ([8]; 20 g/a): 5; Herbicidal effects, broad-leaved weeds ([8]; 40 g/a): 5; Mortality (nematode): 100%; LC50 [10]: 18.5 µg/mL (≈ 50.3 µM)

— patent publication US4015974A, “Amido phosphorothiolates” (priority 1972, dated 1977)
